Measured values from patent US20240391926A1, “SPIROINDOLINONE COMPOUNDS AS Kv1.3 POTASSIUM SHAKER CHANNEL BLOCKERS” (D.E. Shaw Research, LLC, priority 2021, published 2024).

biological target: T1, Kv1.3 potassium channel (Homo sapiens, UniProt P22001); experiment: Kv1.3 potassium channel blocker activity, automated whole-cell patch clamp (Patchliner) in CHO-K1 cells stably expressing Kv1.3; type: cell-based; conditions: 30 nM-100 μM
T1 construct: expressed in transfected cells
Protocol: This assay is used to evaluate the disclosed compounds' activities as Kv1.3 potassium channel blockers.
CHO-K1 cells stably expressing Kv1.3 were grown in DMEM containing 10% heat-inactivated FBS, 1 mM sodium pyruvate, 2 mM L-glutamine, and G418 (500 μg/ml). Cells were grown in culture flasks at 37° C. in a 5% CO2-humidified incubator.
The cells were bathed in an extracellular solution containing 140 mM NaCl, 4 mM KCl, 2 mM CaCl2), 1 mM MgCl2, 5 mM glucose, 10 mM HEPES; pH adjusted to 7.4 with NaOH; 295-305 mOsm. The internal solution contained 50 mM KCl, 10 mM NaCl, 60 mM KF, 20 mM EGTA, 10 mM HEPES; pH adjusted to 7.2 with KOH; 285 mOsm. All compounds were dissolved in DMSO at 30 mM. Compound stock solutions were freshly diluted with external solution to concentrations of 30 nM, 100 nM, 300 nM, 1 μM, 3 μM, 10 μM, 30 μM and 100 μM. The highest content of DMSO (0.3%) was present in 100 μM.
The currents were evoked by applying 100 ms depolarizing pulses from −90 mV (holding potential) to +40 mV were applied with 0.1 Hz frequency. Control (compound-free) and compound pulse trains for each compound concentration applied contained 20 pulses. 10-second breaks were used between pulse trains (see Table A below).
Whole-cell current recordings and compound application were enabled by means of an automated patch clamp platform Patchliner (Nanion Technologies GmbH). EPC 10 patch clamp amplifier (HEKA Elektronik Dr. Schulze GmbH) along with Patchmaster software (HEKA Elektronik Dr. Schulze GmbH) was used for data acquisition. Data were sampled at 10 kHz without filtering. Passive leak currents were subtracted online using a P/4 procedure (HEKA Elektronik Dr. Schulze GmbH). Increasing compound concentrations were applied consecutively to the same cell without washouts in between. Total compound incubation time before the next pulse train was not longer than 10 seconds. Peak current inhibition was observed during compound equilibration.
AUC and peak values were obtained with Patchmaster (HEKA Elektronik Dr. Schulze GmbH). To determine IC50, the last single pulse in the pulse train corresponding to a given compound concentration was used. Obtained AUC and peak values in the presence of compound were normalized to control values in the absence of compound. Using Origin (OridinLab), IC50 was derived from data fit to Hill equation: Icompound/Icontrol=(100−A)/(1+([compound]/IC50)nH)+A, where IC50 value is the concentration at which current inhibition is half-maximal, [compound] is the applied compound concentration, A is the fraction of current that is not blocked and nH is the Hill coefficient.

T1 sequence (P22001 whole entry): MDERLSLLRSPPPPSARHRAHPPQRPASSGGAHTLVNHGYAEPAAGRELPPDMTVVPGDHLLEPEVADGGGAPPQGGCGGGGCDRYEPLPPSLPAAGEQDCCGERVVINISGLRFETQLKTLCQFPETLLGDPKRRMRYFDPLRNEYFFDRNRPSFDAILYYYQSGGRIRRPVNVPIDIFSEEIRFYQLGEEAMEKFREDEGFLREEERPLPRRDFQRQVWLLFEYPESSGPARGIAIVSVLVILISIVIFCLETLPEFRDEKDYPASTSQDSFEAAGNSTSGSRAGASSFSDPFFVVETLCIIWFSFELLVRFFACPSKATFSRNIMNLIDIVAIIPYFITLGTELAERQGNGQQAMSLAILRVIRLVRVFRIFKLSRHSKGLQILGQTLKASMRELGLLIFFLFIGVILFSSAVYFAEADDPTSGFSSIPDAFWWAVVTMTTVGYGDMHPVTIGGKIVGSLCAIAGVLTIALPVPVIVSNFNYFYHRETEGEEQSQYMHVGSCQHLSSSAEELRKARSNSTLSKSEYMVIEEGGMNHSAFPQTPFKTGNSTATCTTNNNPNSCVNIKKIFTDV

IC50 [µM]	SMILES
< 1	O=C([C@H]1CCCNC1)N1CC[C@]2(C1)C(=O)Nc1cc(Cl)c(Cl)cc12 [Compound 16, (S)-5,6-dichloro-1′-((S)-piperidine-3-carbonyl)spiro[indoline-3,3′-pyrrolidin]-2-one]
< 3	O=C(C(CO)CO)N1CC[C@]2(C1)C(=O)Nc1cc(Cl)c(Cl)cc12 [Compound 19, (S)-5,6-dichloro-1′-(3-hydroxy-2-(hydroxymethyl)propanoyl)spiro[indoline-3,3′-pyrrolidin]-2-one]
< 10	O=C([C@H]1CCCO1)N1CC[C@]2(C1)C(=O)Nc1cc(Cl)c(Cl)cc12 [Compound 20, (S)-5,6-dichloro-1′-((R)-tetrahydrofuran-2-carbonyl)spiro[indoline-3,3′-pyrrolidin]-2-one]
< 1	O=C([C@@H]1CCCN1)N1CC[C@]2(C1)C(=O)Nc1cc(Cl)c(Cl)cc12 [Compound 22, (S)-1′-(L-prolyl)-5,6-dichlorospiro[indoline-3,3′-pyrrolidin]-2-one]
< 1	O=C(CC1CNC1)N1CC[C@]2(C1)C(=O)Nc1cc(Cl)c(Cl)cc12 [Compound 26, (S)-1′-(2-(azetidin-3-yl)acetyl)-5,6-dichlorospiro[indoline-3,3′-pyrrolidin]-2-one]
< 3	O=C1Nc2cc(Cl)c(Cl)cc2[C@]12CCN(C(=O)[C@H]1C[C@H](O)C1)C2 [Compound 27, (S)-5,6-dichloro-1′-((1r,3S)-3-hydroxycyclobutane-1-carbonyl)spiro[indoline-3,3′-pyrrolidin]-2-one]
< 1	O=C(N1CC[C@]2(C1)C(=O)Nc1cc(Cl)c(Cl)cc12)C1(F)CCNCC1 [Compound 34, (S)-5,6-dichloro-1′-(4-fluoropiperidine-4-carbonyl)spiro[indoline-3,3′-pyrrolidin]-2-one]
< 3	CC(C)C[C@H](N)C(=O)N1CC[C@]2(C1)C(=O)Nc1cc(Cl)c(Cl)cc12 [Compound 45, (S)-1′-(L-leucyl)-5,6-dichlorospiro[indoline-3,3′-pyrrolidin]-2-one]
< 3	CC(C)[C@@H](N)C(=O)N1CC[C@]2(C1)C(=O)Nc1cc(Cl)c(Cl)cc12 [Compound 46, (S)-1′-(D-valyl)-5,6-dichlorospiro[indoline-3,3′-pyrrolidin]-2-one]
< 3	NC[C@H](O)C(=O)N1CC[C@]2(C1)C(=O)Nc1cc(Cl)c(Cl)cc12 [Compound 54, (S)-1′-((S)-3-amino-2-hydroxypropanoyl)-5,6-dichlorospiro[indoline-3,3′-pyrrolidin]-2-one]
< 3	O=C(c1ccc(CO)nc1)N1CC[C@]2(C1)C(=O)Nc1cc(Cl)c(Cl)cc12 [Compound 68, (S)-5,6-dichloro-1′-(6-(hydroxymethyl)nicotinoyl)spiro[indoline-3,3′-pyrrolidin]-2-one]
< 10	Cn1cc(C(=O)N2CC[C@]3(C2)C(=O)Nc2cc(Cl)c(Cl)cc23)cn1 [Compound 69, (S)-5,6-dichloro-1′-(1-methyl-1H-pyrazole-4-carbonyl)spiro[indoline-3,3′-pyrrolidin]-2-one]
< 3	Nc1[nH]ncc1C(=O)N1CC[C@]2(C1)C(=O)Nc1cc(Cl)c(Cl)cc12 [Compound 70, (S)-1′-(5-amino-1H-pyrazole-4-carbonyl)-5,6-dichlorospiro[indoline-3,3′-pyrrolidin]-2-one]

More lines, now with the values behind:

SMILES	IC50 [µM]
O=C([C@H]1CNCCO1)N1CC[C@]2(C1)C(=O)Nc1cc(Cl)c(Cl)cc12 [Compound 10, (S)-5,6-dichloro-1′-((R)-morpholine-2-carbonyl)spiro[indoline-3,3′-pyrrolidin]-2-one]	< 1
O=C([C@@H]1CNCCO1)N1CC[C@]2(C1)C(=O)Nc1cc(Cl)c(Cl)cc12 [Compound 11, (S)-5,6-dichloro-1′-((S)-morpholine-2-carbonyl)spiro[indoline-3,3′-pyrrolidin]-2-one]	< 3
C[C@H](O)C(=O)N1CC[C@]2(C1)C(=O)Nc1cc(Cl)c(Cl)cc12 [Compound 12, (S)-5,6-dichloro-1′-((S)-2-hydroxypropanoyl)spiro[indoline-3,3′-pyrrolidin]-2-one]	< 3
CNCC(=O)N1CC[C@]2(C1)C(=O)Nc1cc(Cl)c(Cl)cc12 [Compound 18, (S)-5,6-dichloro-1′-(methylglycyl)spiro[indoline-3,3′-pyrrolidin]-2-one]	< 3
O=C([C@H]1CCCN1)N1CC[C@]2(C1)C(=O)Nc1cc(Cl)c(Cl)cc12 [Compound 23, (S)-1′-(D-prolyl)-5,6-dichlorospiro[indoline-3,3′-pyrrolidin]-2-one]	< 3
O=C([C@@H]1CCOC1)N1CC[C@]2(C1)C(=O)Nc1cc(Cl)c(Cl)cc12 [Compound 24, (S)-5,6-dichloro-1′-((R)-tetrahydrofuran-3-carbonyl)Spiro[indoline-3,3′-pyrrolidin]-2-one]	< 3
O=C1Nc2cc(Cl)c(Cl)cc2[C@]12CCN(C(=O)[C@H]1C[C@@H](O)C1)C2 [Compound 25, (S)-5,6-dichloro-1′-((1s,3R)-3-hydroxycyclobutane-1-carbonyl)spiro[indoline-3,3′-pyrrolidin]-2-one]	< 3
N[C@@H](CO)C(=O)N1CC[C@]2(C1)C(=O)Nc1cc(Cl)c(Cl)cc12 [Compound 36, (S)-1′-(L-Seryl)-5,6-dichlorospiro[indoline-3,3′-pyrrolidin]-2-one]	< 1
Cn1nc(C(=O)N2CC[C@]3(C2)C(=O)Nc2cc(Cl)c(Cl)cc23)cc1N [Compound 41, (S)-1′-(5-amino-1-methyl-1H-pyrazole-3-carbonyl)-5,6-dichlorospiro[indoline-3,3′-pyrrolidin]-2-one]	< 10
N[C@H](CO)C(=O)N1CC[C@]2(C1)C(=O)Nc1cc(Cl)c(Cl)cc12 [Compound 43, (S)-1′-(D-seryl)-5,6-dichlorospiro[indoline-3,3′-pyrrolidin]-2-one]	< 1
CC(C)C[C@@H](N)C(=O)N1CC[C@]2(C1)C(=O)Nc1cc(Cl)c(Cl)cc12 [Compound 44, (S)-1′-(D-leucyl)-5,6-dichlorospiro[indoline-3,3′-pyrrolidin]-2-one]	< 3
CC(C)[C@H](N)C(=O)N1CC[C@]2(C1)C(=O)Nc1cc(Cl)c(Cl)cc12 [Compound 47, (S)-1′-(L-valyl)-5,6-dichlorospiro[indoline-3,3′-pyrrolidin]-2-one]	< 3
O=C(N1CC[C@]2(C1)C(=O)Nc1cc(Cl)c(Cl)cc12)[C@@]1(F)CCCNC1 [Compound 48, (S)-5,6-dichloro-1′-((R)-3-fluoropiperidine-3-carbonyl)spiro[indoline-3,3′-pyrrolidin]-2-one]	< 1
O=C(C1CNCC(F)(F)C1)N1CC[C@]2(C1)C(=O)Nc1cc(Cl)c(Cl)cc12 (stereo partly drawn) [Compound 50, (3S)-5,6-dichloro-1′-(5,5-difluoropiperidine-3-carbonyl)spiro[indoline-3,3′-pyrrolidin]-2-one]	< 1
O=C1Nc2cc(Cl)c(Cl)cc2[C@]12CCN(C(=O)[C@H]1CC[C@@H](O)CC1)C2 [Compound 51, (S)-5,6-dichloro-1′-((1s,4R)-4-hydroxycyclohexane-1-carbonyl)spiro[indoline-3,3′-pyrrolidin]-2-one]	< 3
NC[C@@H](O)C(=O)N1CC[C@]2(C1)C(=O)Nc1cc(Cl)c(Cl)cc12 [Compound 55, (S)-1′-((R)-3-amino-2-hydroxypropanoyl)-5,6-dichlorospiro[indoline-3,3′-pyrrolidin]-2-one]	< 1
O=C(C[C@H]1CCCN1)N1CC[C@]2(C1)C(=O)Nc1cc(Cl)c(Cl)cc12 [Compound 59, (S)-5,6-dichloro-1′-(2-((R)-pyrrolidin-2-yl)acetyl)spiro[indoline-3,3′-pyrrolidin]-2-one]	< 3
O=C(C[C@@H]1CCCN1)N1CC[C@]2(C1)C(=O)Nc1cc(Cl)c(Cl)cc12 [Compound 61, (S)-5,6-dichloro-1′-(2-((S)-pyrrolidin-2-yl)acetyl)spiro[indoline-3,3′-pyrrolidin]-2-one]	< 1
O=C(Cc1cn[nH]c1)N1CC[C@]2(C1)C(=O)Nc1cc(Cl)c(Cl)cc12 [Compound 72, (S)-1′-(2-(1H-pyrazol-4-yl)acetyl)-5,6-dichlorospiro[indoline-3,3′-pyrrolidin]-2-one]	< 3
O=C(Cc1cc[nH]n1)N1CC[C@]2(C1)C(=O)Nc1cc(Cl)c(Cl)cc12 [Compound 73, (S)-1′-(2-(1H-pyrazol-3-yl)acetyl)-5,6-dichlorospiro[indoline-3,3′-pyrrolidin]-2-one]	< 3
